Assay results: the supplement of paper PMC10307832

Key:
Midostaurin = compound: CO[C@@H]1[C@H](N(C)C(=O)c2ccccc2)C[C@H]2O[C@]1(C)n1c3ccccc3c3c4c(c5c6ccccc6n2c5c31)C(=O)NC4 [Midostaurin]; test: relative viability (nuclei count vs DMSO), 5 days (fraction); higher = more cells survive
Method in brief: (§1)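 Viability was defined as treated-well nuclei divided by vehicle-well nuclei, with the median taken over replicate plates. Cells from lung cancer lines sat overnight at 37 °C in 1536-well plates, received five √10-spaced library-drug doses by pinning on vehicle-anchored plates, and grew 5 days without medium change before one-step fixation, permeabilisation and Hoechst staining, 4× imaging and MetaXpress nuclear counts. Only plates with control CV under 25% and at least one doubling were kept.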

[1] = compound: COc1cc(-c2nn([C@H]3CC[C@H](N4CCN(C(C)=O)CC4)CC3)c3ncnc(N)c23)ccc1NC(=O)c1cc2ccccc2n1C; test: as above
Method in brief: as §1

| Cell Line | relative viability (Midostaurin; 0.01 µM) | relative viability (Midostaurin; 0.03162 µM) | relative viability (Midostaurin; 0.1 µM) | relative viability (Midostaurin; 0.3162 µM) | relative viability ([1]; 0.0128 µM) | relative viability ([1]; 0.04048 µM) | relative viability ([1]; 0.128 µM) | relative viability ([1]; 1.28 µM) |
| --- | --- | --- | --- | --- | --- | --- | --- | --- |
| 201T | 0.984 | 0.918 | 1 | 1.03 | 1.02 | 1.03 | 0.927 | 0.716 |
| A549 | 0.994 | 0.857 | 0.953 | 0.744 | 0.995 | 0.952 | 0.979 | 0.957 |
| A-427 | 0.927 | 0.879 | 1.03 | 0.985 | 1.05 | 0.837 | 0.973 | 0.863 |
| ABC-1 | 0.867 | 0.962 | 0.948 | 0.96 | 0.879 | 0.885 | 0.756 | 0.805 |
| BEN | 0.98 | 0.964 | 1.03 | 1.19 | 0.816 | 0.985 | 0.884 | 0.702 |
| CAL-12T | 1.05 | 0.882 | 0.921 | 0.839 | 1.03 | 1.03 | 1.06 | 0.991 |
| COR-L23 | 0.998 | 0.946 | 0.958 | 0.875 | 1.06 | 1.1 | 0.92 | 1.08 |
| COR-L 105 | 0.953 | 0.858 | 0.828 | 0.874 | 0.811 | 1.09 | 0.863 | 0.596 |
| Calu-6 | 0.946 | 0.984 | 0.985 | 1.01 | 1.04 | 1.04 | 0.899 | 0.764 |
| ChaGo-K-1 | 0.919 | 1.07 | 0.932 | 1.02 | 1.03 | 0.98 | 0.891 | 0.898 |
| EBC-1 | 1.01 | 0.9 | 0.959 | 0.684 | 1.06 | 1.07 | 1.01 | 1.02 |
| EKVX | 0.991 | 0.886 | 0.95 | 1 | 0.941 | 1.06 | 0.987 | 0.56 |
| EMC-BAC-2 | 0.928 | 0.903 | 0.858 | 0.954 | 1.04 | 1.17 | 0.941 | 0.957 |
| EPLC-272H | 1.04 | 0.944 | 0.93 | 0.969 | 0.906 | 0.873 | 0.963 | 0.865 |
| H3255 | 0.971 | 0.948 | 0.876 | 0.966 | 0.996 | 0.962 | 0.946 | 0.763 |
| HARA | 0.98 | 0.87 | 0.974 | 0.932 | 1.03 | 0.828 | 0.879 | 0.612 |
| HCC-15 | 1.05 | 0.902 | 1.05 | 1.05 | 1.21 | 0.785 | 0.971 | 1.06 |
| HCC-44 | 1 | 0.965 | 0.996 | 0.985 | 1.06 | 1.13 | 0.954 | 1.17 |
| HCC-78 | 1.01 | 0.814 | 1.03 | 0.606 | 1.06 | 1.06 | 0.912 | 0.567 |
| HCC-366 | 0.913 | 1.03 | 1.02 | 0.955 | 0.995 | 1.04 | 0.977 | 0.916 |
